Read-outs that look alike come from different tables or passages of the source.
Experiments:
Format in all cases: biochemical
hCA I = hCA I (Homo sapiens, UniProt P00915); test: CA inhibition, stopped-flow CO2 hydrase assay, hCA I
Procedure: (§1) An Applied Photophysics stopped-flow instrument has been used for assaying the CA-catalyzed CO2 hydration activity. […] The initial rates of the CA-catalysed CO2 hydration reaction were followed for a period of 10−100 s. The CO2 concentrations ranged from 1.7 to 17 mM for the determination of the kinetic parameters and inhibition constants. […] The uncatalyzed rates were determined in the same manner and subtracted from the total observed ones. Stock solutions of each inhibitor (0.1 mM) were prepared in distilled − deionized water and dilutions up to 0.01 nM were done thereafter with distilled − deionized water. Inhibitor and enzyme solutions were preincubated together for 15 min at room temperature prior to assay to allow for the formation of the E−I complex. The inhibition constants were obtained by nonlinear least-squares methods using the Cheng-Prusoff equation and represent the mean from at least three different determinations. […] Human CA isoforms were recombinant enzymes obtained in-house as reported earlier.

hCA II = hCA II (Homo sapiens, UniProt P00918); test: CA inhibition, stopped-flow CO2 hydrase assay, hCA II
Procedure: as §1

hCA IX = hCA IX (Homo sapiens, UniProt Q16790); test: CA inhibition, stopped-flow CO2 hydrase assay, hCA IX
Procedure: as §1

hCA XII = hCA XII (Homo sapiens, UniProt O43570); test: CA inhibition, stopped-flow CO2 hydrase assay, hCA XII
Procedure: as §1

[1] = Table 1, saccharin-based derivatives, recombinant enzyme, 15 min preincubation, pH 7.5

Sequence of hCA XII (O43570 25-354): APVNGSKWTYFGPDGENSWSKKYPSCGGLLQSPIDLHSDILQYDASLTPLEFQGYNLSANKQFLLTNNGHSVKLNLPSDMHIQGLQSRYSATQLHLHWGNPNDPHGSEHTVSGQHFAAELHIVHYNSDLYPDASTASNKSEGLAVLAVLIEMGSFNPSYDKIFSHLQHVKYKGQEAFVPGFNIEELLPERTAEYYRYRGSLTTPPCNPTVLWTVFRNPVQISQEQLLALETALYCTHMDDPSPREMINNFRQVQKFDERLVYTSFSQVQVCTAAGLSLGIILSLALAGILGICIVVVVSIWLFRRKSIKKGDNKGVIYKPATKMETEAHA
Sequence of hCA I (P00915 whole entry): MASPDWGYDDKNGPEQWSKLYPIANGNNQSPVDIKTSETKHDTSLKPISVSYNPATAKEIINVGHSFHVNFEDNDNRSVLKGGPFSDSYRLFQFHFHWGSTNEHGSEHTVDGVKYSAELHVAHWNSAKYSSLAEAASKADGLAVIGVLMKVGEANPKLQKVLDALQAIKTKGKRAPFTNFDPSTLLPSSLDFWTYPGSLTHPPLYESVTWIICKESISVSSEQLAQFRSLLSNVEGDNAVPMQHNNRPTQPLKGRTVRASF

SMILES | Ki (hCA I) [µM] | Ki (hCA I; [1]) [µM] | Ki (hCA II) [µM] | Ki (hCA II; [1]) [µM] | Ki (hCA IX) [µM] | Ki (hCA IX; [1]) [µM] | Ki (hCA XII) [µM] | inhibitory activity against hCA I, in words (hCA I) | inhibitory activity against hCA II, in words (hCA II) | Ki (hCA XII; [1]) [µM]
CC(C)=CCN1C(=O)c2ccccc2S1(=O)=O [Compound 1] | > 1000 | > 1000 | > 1000 | > 1000 | 0.39 | 0.39 | 0.23 |  |  | 
O=C1c2ccccc2S(=O)(=O)N1Cc1ccccc1Cl [Compound 2] |  | > 1000 |  | > 1000 |  | 0.3 | 0.22 | ineffective | ineffective | 
O=C1c2ccccc2S(=O)(=O)N1Cc1cccc(Cl)c1 [Compound 3] |  | > 1000 |  | > 1000 | 0.3 | 0.1 | 1.3 | ineffective | ineffective | 
O=C(CN1C(=O)c2ccccc2S1(=O)=O)c1cccc([N+](=O)[O-])c1 [Compound 4] |  | > 1000 |  | > 1000 | > 1000 | > 1000 | 0.41 | ineffective | ineffective | 
COC(=O)c1ccccc1S(=O)(=O)Nc1ccccc1 [Compound 5] |  | > 1000 |  | > 1000 |  | 59.6 |  |  |  | > 1000
COC(=O)c1ccccc1S(=O)(=O)Nc1ccc(F)cc1 [Compound 6] |  | > 1000 |  | > 1000 |  | 262 |  |  |  | > 1000
COC(=O)c1ccccc1S(=O)(=O)Nc1ccccc1Cl [Compound 7] |  | > 1000 |  | > 1000 |  | 428 |  |  |  | > 1000
COC(=O)c1ccccc1S(=O)(=O)Nc1ccc(Cl)cc1 [Compound 8] |  | > 1000 |  | > 1000 |  | 955 |  |  |  | > 1000
COC(=O)c1ccccc1S(=O)(=O)Nc1ccc(Br)cc1 [Compound 9] |  | > 1000 |  | 689 |  | 6.7 |  |  |  | > 1000
COC(=O)c1ccccc1S(=O)(=O)Nc1ccc(C(F)(F)F)cc1 [Compound 10] |  | > 1000 |  | > 1000 |  | 563 |  |  |  | > 1000
COC(=O)c1ccccc1S(=O)(=O)Nc1cccc([N+](=O)[O-])c1 [Compound 11] |  | > 1000 |  | > 1000 |  | > 1000 |  |  |  | > 1000
COC(=O)c1ccccc1S(=O)(=O)Nc1ccc([N+](=O)[O-])cc1 [Compound 12] |  | > 1000 |  | > 1000 |  | 62.8 |  |  |  | > 1000
COC(=O)c1ccccc1S(=O)(=O)Nc1ccc(C)cc1 [Compound 13] |  | > 1000 |  | > 1000 |  | 68.2 |  |  |  | > 1000
COC(=O)c1ccccc1S(=O)(=O)Nc1c(C)cccc1C [Compound 14] |  | > 1000 |  | > 1000 |  | 39.7 |  |  |  | > 1000
COC(=O)c1ccccc1S(=O)(=O)Nc1ccc(C(C)C)cc1 [Compound 15] |  | > 1000 |  | > 1000 |  | 57.6 |  |  |  | > 1000
COC(=O)c1ccccc1S(=O)(=O)Nc1ccc(OC)cc1 [Compound 16] |  | > 1000 |  | > 1000 |  | 93.3 |  |  |  | > 1000
O=C(O)c1ccccc1S(=O)(=O)Nc1ccccc1 [Compound 17] |  | > 1000 |  | > 1000 |  | 46.5 |  |  |  | > 1000
O=C(O)c1ccccc1S(=O)(=O)Nc1ccc(F)cc1 [Compound 18] |  | > 1000 |  | > 1000 |  | 45.8 |  |  |  | > 1000
O=C(O)c1ccccc1S(=O)(=O)Nc1ccccc1Cl [Compound 19] |  | > 1000 |  | > 1000 |  | > 1000 |  |  |  | > 1000
O=C(O)c1ccccc1S(=O)(=O)Nc1ccc(Cl)cc1 [Compound 20] |  | > 1000 |  | > 1000 |  | > 1000 |  |  |  | > 1000

SMILES | Ki (hCA I) [µM] | Ki (hCA I; [1]) [µM] | Ki (hCA II) [µM] | Ki (hCA II; [1]) [µM] | Ki (hCA IX) [µM] | Ki (hCA IX; [1]) [µM] | Ki (hCA XII) [µM] | inhibitory activity against hCA I, in words (hCA I) | inhibitory activity against hCA II, in words (hCA II) | Ki (hCA XII; [1]) [µM]
O=C(O)c1ccccc1S(=O)(=O)Nc1ccc(Br)cc1 [Compound 21] |  | > 1000 |  | > 1000 |  | 72.8 |  |  |  | > 1000
O=C(O)c1ccccc1S(=O)(=O)Nc1ccc(C(F)(F)F)cc1 [Compound 22] |  | > 1000 |  | > 1000 |  | 84.8 |  |  |  | > 1000
O=C(O)c1ccccc1S(=O)(=O)Nc1cccc([N+](=O)[O-])c1 [Compound 23] |  | > 1000 |  | > 1000 |  | > 1000 |  |  |  | > 1000
O=C(O)c1ccccc1S(=O)(=O)Nc1ccc([N+](=O)[O-])cc1 [Compound 24] |  | > 1000 | 66.9 |  | 0.24 | 0.24 |  |  |  | > 1000
Cc1ccc(NS(=O)(=O)c2ccccc2C(=O)O)cc1 [Compound 25] |  | > 1000 |  | > 1000 |  | > 1000 |  |  |  | > 1000
Cc1cccc(C)c1NS(=O)(=O)c1ccccc1C(=O)O [Compound 26] |  | > 1000 |  | > 1000 |  | > 1000 |  |  |  | > 1000
CC(C)c1ccc(NS(=O)(=O)c2ccccc2C(=O)O)cc1 [Compound 27] |  | > 1000 |  | > 1000 |  | > 1000 |  |  |  | > 1000
COc1ccc(NS(=O)(=O)c2ccccc2C(=O)O)cc1 [Compound 28] |  | > 1000 |  | > 1000 |  | > 1000 |  |  |  | > 1000
O=C1c2ccccc2S(=O)(=O)N1c1ccccc1 [Compound 29] |  | > 1000 |  | > 1000 |  | > 1000 |  |  |  | > 1000
O=C1c2ccccc2S(=O)(=O)N1c1ccc(F)cc1 [Compound 30] |  | > 1000 |  | > 1000 |  | > 1000 |  |  |  | > 1000
O=C1c2ccccc2S(=O)(=O)N1c1ccccc1Cl [Compound 31] |  | > 1000 | 478 |  |  | 640 |  |  |  | > 1000
O=C1c2ccccc2S(=O)(=O)N1c1ccc(Cl)cc1 [Compound 32] |  | > 1000 |  | > 1000 |  | > 1000 |  |  |  | > 1000
O=C1c2ccccc2S(=O)(=O)N1c1ccc(Br)cc1 [Compound 33] |  | > 1000 |  | > 1000 |  | 869 |  |  |  | > 1000
O=C1c2ccccc2S(=O)(=O)N1c1ccc(C(F)(F)F)cc1 [Compound 34] |  | > 1000 |  | > 1000 |  | > 1000 |  |  |  | > 1000
O=C1c2ccccc2S(=O)(=O)N1c1cccc([N+](=O)[O-])c1 [Compound 35] |  | > 1000 |  | > 1000 |  | > 1000 |  |  |  | > 1000
O=C1c2ccccc2S(=O)(=O)N1c1ccc([N+](=O)[O-])cc1 [Compound 36] |  | > 1000 |  | > 1000 | 443 | 444 |  |  |  | > 1000
Cc1ccc(N2C(=O)c3ccccc3S2(=O)=O)cc1 [Compound 37] |  | > 1000 |  | > 1000 |  | > 1000 |  |  |  | > 1000
Cc1cccc(C)c1N1C(=O)c2ccccc2S1(=O)=O [Compound 38] |  | > 1000 |  | > 1000 |  | > 1000 |  |  |  | > 1000
CC(C)c1ccc(N2C(=O)c3ccccc3S2(=O)=O)cc1 [Compound 39] |  | > 1000 |  | > 1000 |  | > 1000 |  |  |  | > 1000
COc1ccc(N2C(=O)c3ccccc3S2(=O)=O)cc1 [Compound 40] |  | > 1000 |  | > 1000 |  | > 1000 |  |  |  | > 1000

From PMC7580763, “Novel insights on saccharin- and acesulfame-based carbonic anhydrase inhibitors: design, synthesis, modelling investigations and biological activity evaluation” (Journal of Enzyme Inhibition and Medicinal Chemistry, 2020)
